Assay results from patent US20040076968A1, “Method for detecting pre-disposition to hepatotoxicity” (priority 2000, published 2004).

Assays:
[1] = human subjects; cited from earlier work
[2] = Clinical trials for tolcapone in patients with Parkinson's disease: liver transaminases; assay type: in vivo, human; conditions: rare circumstances
From the text: There was therefore a desire to establish whether there is a correlation between the occurrence of such liver abnormalities, which are indicators of liver toxicity and certain genetic pre-dispositions.

UGT1A6 gene = experiment: Association of UGT1A6 polymorphisms with liver function abnormality in tolcapone-treated patients (case-control genotyping); assay type: in vivo, human
Description: Disease severity had already been controlled for by the original study inclusion criteria.
In the KTC format, the generation of double-stranded amplification product is monitored using a DNA intercalating dye and a thermal cycler which has a fluorescence-detecting CCD camera attached (PE-Bipsystems GeneAmp 5700 Sequence Detection System). Fluorescence in each well of the PCR amplification plate is measured at each cycle of annealing and denaturation. The cycle at which the relative fluorescence reached a threshold of 0.5 using the SDS sofiware from PE-Biosystems was defined as the Ct.
The amplification reactions were designed to be allele-specific, so that the amplification reaction was positive if the polymorphism was present and the amplification reaction was negative if the polymorphism was absent. For each bi-allelic polymorphism, one well of the amplification plate was set up to be specific for allele 1 and a second well was set up to be specific for allele 2. For each polymorphism to be detected, three primers were designed—two allele-specific primers and one common primer (Table 3). Reactions for allele 1 contained allele 1-specific primer and the common primer and reactions for allele 2 contained allele 2-specific primer and the common primer.
The Ct of each amplification reaction was determined and the difference between the Ct for allele 1 and allele 2 (delta Ct) was, used as the assay result. Samples with delta Cts between −3.0 and 3.0 were considered heterozygous (A1/A2). Samples with delta Cts below −3.0 were considered homozygous for A1 (A1/A1); samples with delta Cts above 3.0 were considered homozygous for A2 (A2/A2).
For all other single nucleotide polymorphisms (SNPs) discovery and genotyping was done by double-stranded DNA sequencing using an ABI capillary sequencer and Big Dye chemistry (ABI). The primers used to amplify all exons are shown below and were also used as sequencing primers. Publicly available genomic sequences were used as references for primer design. All polymorphisms were targeted with these pairs-of-primer sets:
The patient samples were divided into two groups.
For each genotype, the following analyses were performed:
a) Analysis of the entire genotype: patients were classified according to the following three categories: homozygous 1/1 (two copies of allele 1 and no copies of allele 2), heterozygous 1/2 (one copy of allele 1 and one copy of allele 2) or homozygous 2/2 (no copies of allele 1 and two copies of allele 2). Analysis was conducted to assess whether there were differences in the proportion of case patients in each of these groups, compared with the proportion of control patients. The Cochran-Maentel-Hanszel (CMH) test was applied to the data presented in a 2-by-3 table (the two columns indicating presence or absence of liver function abnormality and the three rows indicating the three categories of the genotype).
b) Analysis of alleles: the presence of allele 1 or 2 in case patients was compared to the presence of the respective allele in the control patients.
c) Analysis of allele counts: this analysis was conducted to compare the distribution of the alleles in patients with liver function abnormality to that of patients without abnormality. The total number of copies of allele 1 among patients with liver function abnormality was compared with the total number of copies of allele 2 among these case patients.

Cc1ccc(C(=O)c2cc(O)c(O)c([N+](=O)[O-])c2)cc1 [tolcapone]
main pathway of elimination from the body [1]: glucuronidation | effect on liver transaminase activity [2]: reversible asymptomatic increase in liver transaminase activity | n (%) of patients (UGT1A6 gene; UGT1A6_232 Ser7Ala, Allele G Absent, Liver Function Abnormality Absent): 112 (42.1%) | n (%) of patients (UGT1A6 gene; UGT1A6_232 Ser7Ala, Allele G Absent, Liver Function Abnormality Present): 40 (30.5%) | n (%) of patients (UGT1A6 gene; UGT1A6_232 Ser7Ala, Allele G Present, Liver Function Abnormality Absent): 154 (57.9%) | n (%) of patients (UGT1A6 gene; UGT1A6_232 Ser7Ala, Allele G Present, Liver Function Abnormality Present): 91 (69.5%) | n (%) of patients (UGT1A6 gene; UGT1A6_232 Ser7Ala, Allele T Absent, Liver Function Abnormality Absent): 31 (11.7%) | n (%) of patients (UGT1A6 gene; UGT1A6_232 Ser7Ala, Allele T Absent, Liver Function Abnormality Present): 28 (21.4%) | n (%) of patients (UGT1A6 gene; UGT1A6_232 Ser7Ala, Allele T Present, Liver Function Abnormality Absent): 235 (88.3%) | n (%) of patients (UGT1A6 gene; UGT1A6_232 Ser7Ala, Allele T Present, Liver Function Abnormality Present): 103 (78.6%) | n (%) of allele copies (UGT1A6 gene; UGT1A6_232 Ser7Ala, Count Allele G, Liver Function Abnormality Absent): 185 (34.8%) | n (%) of allele copies (UGT1A6 gene; UGT1A6_232 Ser7Ala, Count Allele G, Liver Function Abnormality Present): 119 (45.4%) | n (%) of allele copies (UGT1A6 gene; UGT1A6_232 Ser7Ala, Count Allele T, Liver Function Abnormality Absent): 347 (65.2%) | n (%) of allele copies (UGT1A6 gene; UGT1A6_232 Ser7Ala, Count Allele T, Liver Function Abnormality Present): 143 (54.6%) | n (%) of patients (UGT1A6 gene; UGT1A6_232 Ser7Ala, Genotype Heterozygous T/G, Liver Function Abnormality Absent): 123 (46.2%) | n (%) of patients (UGT1A6 gene; UGT1A6_232 Ser7Ala, Genotype Heterozygous T/G, Liver Function Abnormality Present): 63 (48.1%) | n (%) of patients (UGT1A6 gene; UGT1A6_232 Ser7Ala, Genotype Homozygous G/G, Liver Function Abnormality Absent): 31 (11.7%) | n (%) of patients (UGT1A6 gene; UGT1A6_232 Ser7Ala, Genotype Homozygous G/G, Liver Function Abnormality Present): 28 (21.4%) | n (%) of patients (UGT1A6 gene; UGT1A6_232 Ser7Ala, Genotype Homozygous T/T, Liver Function Abnormality Absent): 112 (42.1%) | n (%) of patients (UGT1A6 gene; UGT1A6_232 Ser7Ala, Genotype Homozygous T/T, Liver Function Abnormality Present): 40 (30.5%) | n (%) of patients (UGT1A6 gene; UGT1A6_528 A/G, Allele A Absent, Liver Function Abnormality Absent): 22 (8.3%) | n (%) of patients (UGT1A6 gene; UGT1A6_528 A/G, Allele A Absent, Liver Function Abnormality Present): 26 (20.0%) | n (%) of patients (UGT1A6 gene; UGT1A6_528 A/G, Allele A Present, Liver Function Abnormality Absent): 243 (91.7%) | n (%) of patients (UGT1A6 gene; UGT1A6_528 A/G, Allele A Present, Liver Function Abnormality Present): 104 (80.0%) | n (%) of patients (UGT1A6 gene; UGT1A6_528 A/G, Allele G Absent, Liver Function Abnormality Absent): 129 (48.7%) | n (%) of patients (UGT1A6 gene; UGT1A6_528 A/G, Allele G Absent, Liver Function Abnormality Present): 44 (33.8%) | n (%) of patients (UGT1A6 gene; UGT1A6_528 A/G, Allele G Present, Liver Function Abnormality Absent): 136 (51.3%) | n (%) of patients (UGT1A6 gene; UGT1A6_528 A/G, Allele G Present, Liver Function Abnormality Present): 86 (66.2%) | n (%) of allele copies (UGT1A6 gene; UGT1A6_528 A/G, Count Allele A, Liver Function Abnormality Absent): 372 (70.2%) | n (%) of allele copies (UGT1A6 gene; UGT1A6_528 A/G, Count Allele A, Liver Function Abnormality Present): 148 (56.9%) | n (%) of allele copies (UGT1A6 gene; UGT1A6_528 A/G, Count Allele G, Liver Function Abnormality Absent): 158 (29.8%) | n (%) of allele copies (UGT1A6 gene; UGT1A6_528 A/G, Count Allele G, Liver Function Abnormality Present): 112 (43.1%) | n (%) of patients (UGT1A6 gene; UGT1A6_528 A/G, Genotype Heterozygous A/G, Liver Function Abnormality Absent): 114 (43.0%) | n (%) of patients (UGT1A6 gene; UGT1A6_528 A/G, Genotype Heterozygous A/G, Liver Function Abnormality Present): 60 (46.2%) | n (%) of patients (UGT1A6 gene; UGT1A6_528 A/G, Genotype Homozygous A/A, Liver Function Abnormality Absent): 129 (48.7%) | n (%) of patients (UGT1A6 gene; UGT1A6_528 A/G, Genotype Homozygous A/A, Liver Function Abnormality Present): 44 (33.8%) | n (%) of patients (UGT1A6 gene; UGT1A6_528 A/G, Genotype Homozygous G/G, Liver Function Abnormality Absent): 22 (8.3%) | n (%) of patients (UGT1A6 gene; UGT1A6_528 A/G, Genotype Homozygous G/G, Liver Function Abnormality Present): 26 (20.0%) | n (%) of patients (UGT1A6 gene; UGT1A6_754 Thr181Ala, Allele Ala Absent, Liver Function Abnormality Absent): 144 (52.6%) | n (%) of patients (UGT1A6 gene; UGT1A6_754 Thr181Ala, Allele Ala Absent, Liver Function Abnormality Present): 51 (37.8%) | n (%) of patients (UGT1A6 gene; UGT1A6_754 Thr181Ala, Allele Ala Present, Liver Function Abnormality Absent): 130 (47.4%) | n (%) of patients (UGT1A6 gene; UGT1A6_754 Thr181Ala, Allele Ala Present, Liver Function Abnormality Present): 84 (62.2%) | n (%) of patients (UGT1A6 gene; UGT1A6_754 Thr181Ala, Allele Thr Absent, Liver Function Abnormality Absent): 22 (8.0%) | n (%) of patients (UGT1A6 gene; UGT1A6_754 Thr181Ala, Allele Thr Absent, Liver Function Abnormality Present): 25 (18.5%) | n (%) of patients (UGT1A6 gene; UGT1A6_754 Thr181Ala, Allele Thr Present, Liver Function Abnormality Absent): 252 (92.0%) | n (%) of patients (UGT1A6 gene; UGT1A6_754 Thr181Ala, Allele Thr Present, Liver Function Abnormality Present): 110 (81.5%) | n (%) of allele copies (UGT1A6 gene; UGT1A6_754 Thr181Ala, Count Allele Ala, Liver Function Abnormality Absent): 152 (27.7%) | n (%) of allele copies (UGT1A6 gene; UGT1A6_754 Thr181Ala, Count Allele Ala, Liver Function Abnormality Present): 109 (40.4%) | n (%) of allele copies (UGT1A6 gene; UGT1A6_754 Thr181Ala, Count Allele Thr, Liver Function Abnormality Absent): 396 (72.3%) | n (%) of allele copies (UGT1A6 gene; UGT1A6_754 Thr181Ala, Count Allele Thr, Liver Function Abnormality Present): 161 (59.6%) | n (%) of patients (UGT1A6 gene; UGT1A6_754 Thr181Ala, Genotype Heterozygous Thr/Ala, Liver Function Abnormality Absent): 108 (39.4%) | n (%) of patients (UGT1A6 gene; UGT1A6_754 Thr181Ala, Genotype Heterozygous Thr/Ala, Liver Function Abnormality Present): 59 (43.7%) | n (%) of patients (UGT1A6 gene; UGT1A6_754 Thr181Ala, Genotype Homozygous Ala/Ala, Liver Function Abnormality Absent): 22 (8.8%) | n (%) of patients (UGT1A6 gene; UGT1A6_754 Thr181Ala, Genotype Homozygous Ala/Ala, Liver Function Abnormality Present): 25 (18.5%) | n (%) of patients (UGT1A6 gene; UGT1A6_754 Thr181Ala, Genotype Homozygous Thr/Thr, Liver Function Abnormality Absent): 144 (52.6%) | n (%) of patients (UGT1A6 gene; UGT1A6_754 Thr181Ala, Genotype Homozygous Thr/Thr, Liver Function Abnormality Present): 51 (37.8%) | n (%) of patients (UGT1A6 gene; UGT1A6_765 Arg184Ser, Allele Arg Absent, Liver Function Abnormality Absent): 24 (8.8%) | n (%) of patients (UGT1A6 gene; UGT1A6_765 Arg184Ser, Allele Arg Absent, Liver Function Abnormality Present): 26 (19.3%) | n (%) of patients (UGT1A6 gene; UGT1A6_765 Arg184Ser, Allele Arg Present, Liver Function Abnormality Absent): 250 (91.2%) | n (%) of patients (UGT1A6 gene; UGT1A6_765 Arg184Ser, Allele Arg Present, Liver Function Abnormality Present): 109 (80.7%) | n (%) of patients (UGT1A6 gene; UGT1A6_765 Arg184Ser, Allele Ser Absent, Liver Function Abnormality Absent): 128 (46.7%) | n (%) of patients (UGT1A6 gene; UGT1A6_765 Arg184Ser, Allele Ser Absent, Liver Function Abnormality Present): 45 (33.3%) | n (%) of patients (UGT1A6 gene; UGT1A6_765 Arg184Ser, Allele Ser Present, Liver Function Abnormality Absent): 146 (53.3%) | n (%) of patients (UGT1A6 gene; UGT1A6_765 Arg184Ser, Allele Ser Present, Liver Function Abnormality Present): 90 (66.7%) | n (%) of allele copies (UGT1A6 gene; UGT1A6_765 Arg184Ser, Count Allele Arg, Liver Function Abnormality Absent): 378 (69.0%) | n (%) of allele copies (UGT1A6 gene; UGT1A6_765 Arg184Ser, Count Allele Arg, Liver Function Abnormality Present): 154 (57.0%) | n (%) of allele copies (UGT1A6 gene; UGT1A6_765 Arg184Ser, Count Allele Ser, Liver Function Abnormality Absent): 170 (31.0%) | n (%) of allele copies (UGT1A6 gene; UGT1A6_765 Arg184Ser, Count Allele Ser, Liver Function Abnormality Present): 116 (43.0%) | n (%) of patients (UGT1A6 gene; UGT1A6_765 Arg184Ser, Genotype Heterozygous Arg/Ser, Liver Function Abnormality Absent): 122 (44.5%) | n (%) of patients (UGT1A6 gene; UGT1A6_765 Arg184Ser, Genotype Heterozygous Arg/Ser, Liver Function Abnormality Present): 64 (47.4%) | n (%) of patients (UGT1A6 gene; UGT1A6_765 Arg184Ser, Genotype Homozygous Arg/Arg, Liver Function Abnormality Absent): 128 (46.7%) | n (%) of patients (UGT1A6 gene; UGT1A6_765 Arg184Ser, Genotype Homozygous Arg/Arg, Liver Function Abnormality Present): 45 (33.3%) | n (%) of patients (UGT1A6 gene; UGT1A6_765 Arg184Ser, Genotype Homozygous Ser/Ser, Liver Function Abnormality Absent): 24 (8.8%) | n (%) of patients (UGT1A6 gene; UGT1A6_765 Arg184Ser, Genotype Homozygous Ser/Ser, Liver Function Abnormality Present): 26 (19.3%)
